Results taken from the NIST ThermoML archive (doi:10.1021/je050170x).
± gives the expanded uncertainty stated by the source.

Columns and labels:
[1] = refractive index (Na D-line) (dimensionless); conditions: 101.33 kPa, Liquid, Standard Abbe refractometry
[2] = for surface tension liquid-gas: Wilhelmy-plate method; for mass density / viscosity: 101.33 kPa, Liquid; for viscosity: Capillary tube (Ostwald / Ubbelohde) method

CCCCCC(=O)OCC [ethyl hexanoate]
Conditions | mass density, [2] [kg/m3] | refractive index, [1] | surface tension liquid-gas, [2] [mN/m] | viscosity, [2] [mPa·s]
288.15 K | 875.64 ± 0.44 | 1.4095 ± 0.00032 | 26.4 ± 0.4 | 1.102 ± 0.015
298.15 K | 866.29 ± 0.46 | 1.40504 ± 0.00032 | 25.4 ± 0.4 | 0.94 ± 0.013
308.15 K | 856.91 ± 0.47 | 1.40055 ± 0.00032 | 24.5 ± 0.4 | 0.814 ± 0.011
318.15 K | 847.5 ± 0.49 | 1.39597 ± 0.00032 | 23.6 ± 0.4 | 0.711 ± 0.01
328.15 K | 838.05 ± 0.51 | 1.39164 ± 0.00032 | 22.7 ± 0.4 | 0.63 ± 0.009
338.15 K | 828.55 ± 0.53 | 1.38705 ± 0.00032 | 21.8 ± 0.4 | 0.562 ± 0.008
348.15 K | 818.99 ± 0.55 | 1.38239 ± 0.00032 | 21 ± 0.4 | 0.504 ± 0.007
358.15 K | 809.34 ± 0.57 | 1.37768 ± 0.00032 | 20 ± 0.4 | 0.452 ± 0.006

CCOC(=O)c1ccccc1 [ethyl benzoate]
Conditions | mass density, [2] [kg/m3] | refractive index, [1] | surface tension liquid-gas, [2] [mN/m] | viscosity, [2] [mPa·s]
288.15 K | 1050.78 ± 0.29 | 1.5076 ± 0.00032 | 35.7 ± 0.4 | 2.444 ± 0.032
298.15 K | 1041.42 ± 0.27 | 1.50328 ± 0.00032 | 34.6 ± 0.4 | 1.971 ± 0.026
308.15 K | 1032.07 ± 0.25 | 1.49863 ± 0.00032 | 33.3 ± 0.4 | 1.623 ± 0.021
318.15 K | 1022.73 ± 0.24 | 1.49391 ± 0.00032 | 32.5 ± 0.4 | 1.368 ± 0.018
328.15 K | 1013.4 ± 0.22 | 1.48946 ± 0.00032 | 31.5 ± 0.4 | 1.169 ± 0.015
338.15 K | 1004.06 ± 0.2 | 1.4847 ± 0.00032 | 30.2 ± 0.4 | 1.016 ± 0.014
348.15 K | 994.7 ± 0.2 | 1.48004 ± 0.00032 | 29.3 ± 0.4 | 0.89 ± 0.012
358.15 K | 985.31 ± 0.22 | 1.47526 ± 0.00032 | 28.4 ± 0.4 | 0.784 ± 0.011

CCC(=O)OCc1ccccc1 [benzyl propanoate]
Conditions | mass density, [2] [kg/m3] | refractive index, [1] | surface tension liquid-gas, [2] [mN/m] | viscosity, [2] [mPa·s]
288.15 K | 1036.86 ± 0.39 | 1.4995 ± 0.00034 | 36 ± 0.4 | 2.55 ± 0.034
298.15 K | 1027.6 ± 0.38 | 1.49498 ± 0.00034 | 34.8 ± 0.4 | 2.123 ± 0.029
308.15 K | 1018.38 ± 0.37 | 1.49074 ± 0.00034 | 33.6 ± 0.4 | 1.787 ± 0.024
318.15 K | 1009.15 ± 0.36 | 1.48611 ± 0.00034 | 32.4 ± 0.4 | 1.515 ± 0.02
328.15 K | 999.93 ± 0.34 | 1.48171 ± 0.00034 | 31.6 ± 0.4 | 1.294 ± 0.018
338.15 K | 990.72 ± 0.35 | 1.47711 ± 0.00034 | 30.5 ± 0.4 | 1.114 ± 0.015
348.15 K | 981.49 ± 0.36 | 1.47252 ± 0.00034 | 29.5 ± 0.4 | 0.964 ± 0.013
358.15 K | 972.25 ± 0.37 | 1.46768 ± 0.00034 | 28.5 ± 0.4 | 0.84 ± 0.011

COC(=O)c1ccccc1 [methyl benzoate]
Conditions | mass density, [2] [kg/m3] | refractive index, [1] | surface tension liquid-gas, [2] [mN/m] | viscosity, [2] [mPa·s]
288.15 K | 1093.23 ± 0.57 | 1.51915 ± 0.00035 | 38.6 ± 0.4 | 2.297 ± 0.031
298.15 K | 1083.92 ± 0.55 | 1.51467 ± 0.00035 | 37.2 ± 0.4 | 1.851 ± 0.025
308.15 K | 1074.34 ± 0.54 | 1.50993 ± 0.00035 | 35.8 ± 0.4 | 1.531 ± 0.021
318.15 K | 1064.62 ± 0.52 | 1.50514 ± 0.00035 | 34.8 ± 0.4 | 1.297 ± 0.018
328.15 K | 1054.82 ± 0.51 | 1.50058 ± 0.00035 | 33.7 ± 0.4 | 1.108 ± 0.015
338.15 K | 1044.99 ± 0.49 | 1.49584 ± 0.00035 | 32.5 ± 0.4 | 0.97 ± 0.013
348.15 K | 1035.23 ± 0.48 | 1.49107 ± 0.00035 | 31.3 ± 0.4 | 0.852 ± 0.012
358.15 K | 1025.6 ± 0.47 | 1.48624 ± 0.00035 | 30.4 ± 0.4 | 0.75 ± 0.01

CC(=O)OCc1ccccc1 [benzyl ethanoate]
Conditions | mass density, [2] [kg/m3] | refractive index, [1] | surface tension liquid-gas, [2] [mN/m] | viscosity, [2] [mPa·s]
288.15 K | 1060.11 ± 0.36 | 1.50439 ± 0.00032 | 37.7 ± 0.4 | 2.53 ± 0.033
298.15 K | 1050.75 ± 0.34 | 1.49982 ± 0.00032 | 36.4 ± 0.4 | 2.056 ± 0.027
308.15 K | 1041.39 ± 0.33 | 1.49539 ± 0.00032 | 35.3 ± 0.4 | 1.703 ± 0.023
318.15 K | 1032.03 ± 0.31 | 1.49064 ± 0.00032 | 34.1 ± 0.4 | 1.432 ± 0.019
328.15 K | 1022.67 ± 0.3 | 1.48623 ± 0.00032 | 33.2 ± 0.4 | 1.229 ± 0.016
338.15 K | 1013.29 ± 0.28 | 1.48157 ± 0.00032 | 32.2 ± 0.4 | 1.059 ± 0.014
348.15 K | 1003.89 ± 0.27 | 1.47701 ± 0.00032 | 31.1 ± 0.4 | 0.941 ± 0.013
358.15 K | 994.45 ± 0.27 | 1.47233 ± 0.00032 | 30.1 ± 0.4 | 0.826 ± 0.011

CCCC(=O)OCCC(C)C [3-methylbutyl butanoate]
Conditions | mass density, [2] [kg/m3] | refractive index, [1] | surface tension liquid-gas, [2] [mN/m] | viscosity, [2] [mPa·s]
288.15 K | 867.72 ± 0.51 | 1.41259 ± 0.00034 | 25.7 ± 0.4 | 1.317 ± 0.018
298.15 K | 858.69 ± 0.52 | 1.40815 ± 0.00034 | 24.7 ± 0.4 | 1.111 ± 0.015
308.15 K | 849.62 ± 0.54 | 1.40374 ± 0.00034 | 24 ± 0.4 | 0.952 ± 0.013
318.15 K | 840.55 ± 0.55 | 1.39927 ± 0.00034 | 23.1 ± 0.4 | 0.827 ± 0.011
328.15 K | 831.47 ± 0.57 | 1.39506 ± 0.00034 | 22.4 ± 0.4 | 0.724 ± 0.01
338.15 K | 822.35 ± 0.58 | 1.39055 ± 0.00034 | 21.6 ± 0.4 | 0.641 ± 0.009
348.15 K | 813.19 ± 0.6 | 1.386 ± 0.00034 | 20.5 ± 0.4 | 0.573 ± 0.008
358.15 K | 803.96 ± 0.62 | 1.38139 ± 0.00034 | 19.7 ± 0.4 | 0.511 ± 0.007

CCOC(=O)CC(C)C [ethyl 3-methylbutanoate]
Conditions | mass density, [2] [kg/m3] | refractive index, [1] | surface tension liquid-gas, [2] [mN/m] | viscosity, [2] [mPa·s]
288.15 K | 869.66 ± 0.61 | 1.3988 ± 0.00037 | 24.4 ± 0.4 | 0.853 ± 0.012
298.15 K | 859.78 ± 0.63 | 1.39401 ± 0.00037 | 23.5 ± 0.4 | 0.739 ± 0.011
308.15 K | 849.83 ± 0.64 | 1.38931 ± 0.00037 | 22.5 ± 0.4 | 0.642 ± 0.009
318.15 K | 839.81 ± 0.65 | 1.38458 ± 0.00037 | 21.6 ± 0.4 | 0.566 ± 0.008
328.15 K | 829.71 ± 0.66 | 1.37978 ± 0.00037 | 20.7 ± 0.4 | 0.504 ± 0.007
338.15 K | 819.52 ± 0.68 | 1.37492 ± 0.00037 | 19.6 ± 0.4 | 0.452 ± 0.007
348.15 K | 809.2 ± 0.69 | 1.37002 ± 0.00037 | 18.7 ± 0.4 | 0.408 ± 0.006
358.15 K | 798.73 ± 0.71 | 1.36524 ± 0.00037 | 17.6 ± 0.4 | 0.367 ± 0.005

CCOC(=O)Cc1ccccc1 [ethyl phenylacetate]
Conditions | mass density, [2] [kg/m3] | refractive index, [1] | surface tension liquid-gas, [2] [mN/m] | viscosity, [2] [mPa·s]
288.15 K | 1036.35 ± 0.39 | 1.49971 ± 0.00034 | 35.9 ± 0.4 | 3.002 ± 0.04
298.15 K | 1026.96 ± 0.38 | 1.49513 ± 0.00034 | 34.6 ± 0.4 | 2.384 ± 0.032
308.15 K | 1017.6 ± 0.37 | 1.49063 ± 0.00034 | 33.5 ± 0.4 | 1.948 ± 0.026
318.15 K | 1008.26 ± 0.35 | 1.48583 ± 0.00034 | 32.8 ± 0.4 | 1.624 ± 0.022
328.15 K | 998.93 ± 0.35 | 1.48149 ± 0.00034 | 31.6 ± 0.4 | 1.383 ± 0.019
338.15 K | 989.61 ± 0.35 | 1.47688 ± 0.00034 | 30.6 ± 0.4 | 1.191 ± 0.016
348.15 K | 980.28 ± 0.36 | 1.47224 ± 0.00034 | 29.4 ± 0.4 | 1.037 ± 0.014
358.15 K | 970.95 ± 0.37 | 1.46747 ± 0.00034 | 28.6 ± 0.4 | 0.908 ± 0.012

CCOC(=O)c1ccccc1O [ethyl 2-hydroxybenzoate]
Conditions | mass density, [2] [kg/m3] | refractive index, [1] | surface tension liquid-gas, [2] [mN/m] | viscosity, [2] [mPa·s]
288.15 K | 1134.72 ± 0.49 | 1.52481 ± 0.00032 | 37.5 ± 0.4 | 3.694 ± 0.049
298.15 K | 1125 ± 0.48 | 1.52022 ± 0.00032 | 36.3 ± 0.4 | 2.831 ± 0.037
308.15 K | 1115.29 ± 0.46 | 1.51573 ± 0.00032 | 35.2 ± 0.4 | 2.253 ± 0.03
318.15 K | 1105.6 ± 0.44 | 1.51116 ± 0.00032 | 34.4 ± 0.4 | 1.842 ± 0.024
328.15 K | 1095.94 ± 0.42 | 1.50646 ± 0.00032 | 33.4 ± 0.4 | 1.53 ± 0.02
338.15 K | 1086.24 ± 0.41 | 1.50191 ± 0.00032 | 32 ± 0.4 | 1.305 ± 0.017
348.15 K | 1076.6 ± 0.39 | 1.49744 ± 0.00032 | 31 ± 0.4 | 1.126 ± 0.015
358.15 K | 1066.83 ± 0.37 | 1.49296 ± 0.00032 | 30.2 ± 0.4 | 0.984 ± 0.013

CCOC(=O)CC(C)=O [ethyl 3-oxobutanoate]
Conditions | mass density, [2] [kg/m3] | refractive index, [1] | surface tension liquid-gas, [2] [mN/m] | viscosity, [2] [mPa·s]
288.15 K | 1033.92 ± 0.48 | 1.42091 ± 0.00035 | 33.3 ± 0.4 | 1.902 ± 0.026
298.15 K | 1023.45 ± 0.46 | 1.41658 ± 0.00035 | 32.3 ± 0.4 | 1.581 ± 0.022
308.15 K | – | 1.41246 ± 0.00035 | 31.1 ± 0.4 | 1.344 ± 0.019
318.15 K | – | 1.40803 ± 0.00035 | 30 ± 0.4 | 1.144 ± 0.016
328.15 K | 992.26 ± 0.44 | 1.40386 ± 0.00035 | 29.1 ± 0.4 | 0.981 ± 0.014
338.15 K | 981.58 ± 0.45 | 1.39949 ± 0.00035 | 28.2 ± 0.4 | 0.847 ± 0.012
348.15 K | 971.05 ± 0.45 | 1.3951 ± 0.00035 | 27 ± 0.4 | 0.736 ± 0.01
358.15 K | 960.46 ± 0.46 | 1.39061 ± 0.00035 | 26.1 ± 0.4 | 0.644 ± 0.009
